Laboratory results as given in patent US20080194530A1, “Chemical Compounds” (Phytopharm PLC, priority 2004, published 2008).

What was measured:
[1] = Desolvation / dehydration of crystalline forms on drying or heating; assay type: physicochemical; conditions: for temperature of heating/drying at which the form is converted to non-solvated non-hydrated form B: desolvation or dehydration to form B
[2] = Solid-state stability of crystalline forms on exposure to humidity; assay type: physicochemical

## C[C@H]1CC[C@@]2(OC1)O[C@H]1C[C@H]3[C@@H]4CC[C@@H]5C[C@@H](O)CC[C@]5(C)[C@H]4CC[C@]3(C)[C@H]1[C@@H]2C [form A, sarsasapogenin]
[1]; after filtration and initial drying
  stability with respect to further drying: reasonable stability
[1]; listed as hemi acetone solvate
  temperature of heating/drying at which the form is converted to non-solvated non-hydrated form B: 80-100 °C
[2]; humidity of 50% or greater
  form change on exposure to humidity: led to the formation of form C

## C[C@H]1CC[C@@]2(OC1)O[C@H]1C[C@H]3[C@@H]4CC[C@@H]5C[C@@H](O)CC[C@]5(C)[C@H]4CC[C@]3(C)[C@H]1[C@@H]2C [form C, sarsasapogenin]
[1]
  temperature of heating/drying at which the form is converted to non-solvated non-hydrated form B: 40-60 °C

## CC1CCC2(OC1)O[C@H]1CC3C4CC[C@@H]5C[C@@H](O)CC[C@]5(C)C4CC[C@]3(C)C1[C@@H]2C (stereo partly drawn) [form D, sarsasapogenin]
[1]
  solvate stoichiometry on filtration and drying: variable stoichiometry

## C[C@H]1CC[C@@]2(OC1)O[C@H]1C[C@H]3[C@@H]4CC[C@@H]5C[C@@H](O)CC[C@]5(C)[C@H]4CC[C@]3(C)[C@H]1[C@@H]2C [form H, sarsasapogenin]
[2]; 40° C. and 75% relative humidity for 18 days
  form change on storage: furnish form I
